# Read-outs that look alike come from different tables or passages of the source.
# Experiment: Pharmacokinetics (plasma Cmax, AUC, Tmax, t1/2, trough concentrations)
# Format: in vivo, human
# Settings: for Trough Plasma Concentration, Median / concentration at 7 day: Day 7; for concentration at 7 day / concentration at 28 day / concentration at 56 day / AUC(0-t) / Cmax: human, plasma, oral; for concentration at 56 day: Day 56
# Excerpt: Pharmacokinetic endpoints of this study are PK parameters, including, of area under the plasma concentration versus time curve (AUC), maximum plasma concentration (Cmax), time to maximum concentration (Tmax), and half-life (t1/2) will be summarized descriptively for Randomization (baseline) and Study Weeks 1, 4, and 8
# PK/PD Analysis Set includes all subjects in the SAF who have sufficient data available for the analysis of pharmacokinetic and pharmacodynamic measurements. In the analyses based on PKPD, subjects will be analyzed according to the actual treatment received.
# [1] = 12.5 mg, 12.5 mg BID, read-out: Trough Plasma Concentration, Mean (SD)
# [2] = 12.5 mg, 12.5 mg QD, read-out: Trough Plasma Concentration, Mean (SD)
# [3] = 25 mg, 25 mg BID, read-out: Trough Plasma Concentration, Mean (SD)
# [4] = 50 mg, 50 mg QD, read-out: Trough Plasma Concentration, Mean (SD)
# [5] = 100 mg, 100 mg QD Part 1, read-out: Trough Plasma Concentration, Mean (SD)
# [6] = 100 mg, 100 mg QD Part 1, read-out: Trough Plasma Concentration, Median
structure (smiles),measurement,setting,value
CC(=O)N[C@H]1CC[C@H](NC(=O)CN2CCN(c3nncc(-c4ccc(C)cc4)n3)CC2)CC1 [Compound A HBr],"Trough Plasma Concentration, Median",12.5 mg BID,26.1 ng/mL
same,"Trough Plasma Concentration, Median",12.5 mg QD,5.52 ng/mL
same,"Trough Plasma Concentration, Median",25 mg BID,52 ng/mL
same,"Trough Plasma Concentration, Median",50 mg QD,12.1 ng/mL
same,concentration at 7 day,[1],0.0523 µg/mL
same,concentration at 7 day,[2],0.0116 µg/mL
same,concentration at 28 day,"12.5 mg, Day 28, 12.5 mg BID, read-out: Trough Plasma Concentration, Geo Mean",0.0107 µg/mL
same,concentration at 28 day,"12.5 mg, Day 28, 12.5 mg BID, read-out: Trough Plasma Concentration, Mean (SD)",0.0334 µg/mL
same,concentration at 28 day,"12.5 mg, Day 28, 12.5 mg BID, read-out: Trough Plasma Concentration, Median",0.0273 µg/mL
same,concentration at 28 day,"12.5 mg, Day 28, 12.5 mg QD, read-out: Trough Plasma Concentration, Geo Mean",0.00577 µg/mL
same,concentration at 28 day,"12.5 mg, Day 28, 12.5 mg QD, read-out: Trough Plasma Concentration, Mean (SD)",0.00791 µg/mL
same,concentration at 28 day,"12.5 mg, Day 28, 12.5 mg QD, read-out: Trough Plasma Concentration, Median",0.0041 µg/mL
same,concentration at 56 day,"12.5 mg, 12.5 mg BID, read-out: Trough Plasma Concentration, Geometric Mean",0.0185 µg/mL
same,concentration at 56 day,[1],0.0404 µg/mL
same,concentration at 56 day,"12.5 mg, 12.5 mg BID, read-out: Trough Plasma Concentration, Median",0.0216 µg/mL
same,concentration at 56 day,"12.5 mg, 12.5 mg QD, read-out: Trough Plasma Concentration, Geometric Mean",0.0221 µg/mL
same,concentration at 56 day,[2],0.0399 µg/mL
same,concentration at 56 day,"12.5 mg, 12.5 mg QD, read-out: Trough Plasma Concentration, Median",0.0076 µg/mL
same,AUC(0-t),"12.5 mg, steady state Day 28, 12.5 mg BID, read-out: AUC0-24, Geo Mean",0.94 µg·h/mL
same,AUC(0-t),"12.5 mg, steady state Day 28, 12.5 mg BID, read-out: AUC0-24, Mean (SD)",0.992 µg·h/mL
same,AUC(0-t),"12.5 mg, steady state Day 28, 12.5 mg BID, read-out: AUC0-24, Median",0.922 µg·h/mL
same,Cmax,"12.5 mg, steady state Day 28, 12.5 mg BID, read-out: Cmax, Median",0.137 µg/mL
same,AUC(0-t),"12.5 mg, steady state Day 28, 12.5 mg QD, read-out: AUC0-24, Geo Mean",0.726 µg·h/mL
same,AUC(0-t),"12.5 mg, steady state Day 28, 12.5 mg QD, read-out: AUC0-24, Mean (SD)",1.02 µg·h/mL
same,AUC(0-t),"12.5 mg, steady state Day 28, 12.5 mg QD, read-out: AUC0-24, Median",0.498 µg·h/mL
same,Cmax,"12.5 mg, steady state Day 28, 12.5 mg QD, read-out: Cmax, Geo Mean",0.12 µg/mL
same,Cmax,"12.5 mg, steady state Day 28, 12.5 mg QD, read-out: Cmax, Mean (SD)",0.153 µg/mL
same,Cmax,"12.5 mg, steady state Day 28, 12.5 mg QD, read-out: Cmax, Median",0.0949 µg/mL
same,concentration at 7 day,[3],0.0942 µg/mL
same,concentration at 28 day,"25 mg, Day 28, 25 mg BID, read-out: Trough Plasma Concentration, Geo Mean",0.0621 µg/mL
same,concentration at 28 day,"25 mg, Day 28, 25 mg BID, read-out: Trough Plasma Concentration, Mean (SD)",0.109 µg/mL
same,concentration at 28 day,"25 mg, Day 28, 25 mg BID, read-out: Trough Plasma Concentration, Median",0.0563 µg/mL
same,concentration at 56 day,"25 mg, 25 mg BID, read-out: Trough Plasma Concentration, Geometric Mean",0.046 µg/mL
same,concentration at 56 day,[3],0.104 µg/mL
same,concentration at 56 day,"25 mg, 25 mg BID, read-out: Trough Plasma Concentration, Median",0.0323 µg/mL
same,AUC(0-t),"25 mg, steady state Day 28, 25 mg BID, read-out: AUC0-24, Geo Mean",1.64 µg·h/mL
same,AUC(0-t),"25 mg, steady state Day 28, 25 mg BID, read-out: AUC0-24, Mean (SD)",1.76 µg·h/mL
same,AUC(0-t),"25 mg, steady state Day 28, 25 mg BID, read-out: AUC0-24, Median",1.67 µg·h/mL
same,Cmax,"25 mg, steady state Day 28, 25 mg BID, read-out: Cmax, Geo Mean",0.325 µg/mL
same,Cmax,"25 mg, steady state Day 28, 25 mg BID, read-out: Cmax, Median",0.335 µg/mL
same,concentration at 7 day,[4],0.0931 µg/mL
same,concentration at 28 day,"50 mg, Day 28, 50 mg QD, read-out: Trough Plasma Concentration, Geo Mean",0.0468 µg/mL
same,concentration at 28 day,"50 mg, Day 28, 50 mg QD, read-out: Trough Plasma Concentration, Mean (SD)",0.0874 µg/mL
same,concentration at 28 day,"50 mg, Day 28, 50 mg QD, read-out: Trough Plasma Concentration, Median",0.0209 µg/mL
same,concentration at 56 day,"50 mg, 50 mg QD, read-out: Trough Plasma Concentration, Geometric Mean",0.0381 µg/mL
same,concentration at 56 day,[4],0.155 µg/mL
same,concentration at 56 day,"50 mg, 50 mg QD, read-out: Trough Plasma Concentration, Median",0.018 µg/mL
same,AUC(0-t),"50 mg, steady state Day 28, 50 mg QD, read-out: AUC0-24, Geo Mean",3.23 µg·h/mL
same,AUC(0-t),"50 mg, steady state Day 28, 50 mg QD, read-out: AUC0-24, Mean (SD)",3.39 µg·h/mL
same,AUC(0-t),"50 mg, steady state Day 28, 50 mg QD, read-out: AUC0-24, Median",3.32 µg·h/mL
same,Cmax,"50 mg, steady state Day 28, 50 mg QD, read-out: Cmax, Geo Mean",0.477 µg/mL
same,Cmax,"50 mg, steady state Day 28, 50 mg QD, read-out: Cmax, Mean (SD)",0.518 µg/mL
same,Cmax,"50 mg, steady state Day 28, 50 mg QD, read-out: Cmax, Median",0.488 µg/mL
same,AUC(0-t),"100 mg, 100 mg QD, Cohort 1, Day 28, read-out: Steady-state AUC0-24",14.9 µg·h/mL
same,Cmax,"100 mg, 100 mg QD, Cohort 1, Day 28, read-out: Steady-state Cmax",1.62 µg/mL
same,AUC(0-t),"100 mg, 100 mg QD, Cohort 2, Day 28, read-out: Steady-state AUC0-24",7.48 µg·h/mL
same,Cmax,"100 mg, 100 mg QD, Cohort 2, Day 28, read-out: Steady-state Cmax",1.36 µg/mL
same,AUC(0-t),"100 mg, 100 mg QD, Day 28, read-out: Steady-state AUC0-24, mean of Cohort 1 and Cohort 2",~11.2 µg·h/mL
same,Cmax,"100 mg, 100 mg QD, Day 28, read-out: Steady-state Cmax, mean of Cohort 1 and Cohort 2",~1.49 µg/mL
same,concentration at 7 day,[5],0.299 µg/mL
same,concentration at 7 day,[6],0.0282 µg/mL
same,concentration at 7 day,"100 mg, 100 mg QD Part 2, read-out: Trough Plasma Concentration, Mean (SD)",0.151 µg/mL
same,concentration at 7 day,"100 mg, 100 mg QD Part 2, read-out: Trough Plasma Concentration, Median",0.0298 µg/mL
same,concentration at 28 day,"100 mg, Day 28, 100 mg QD Part 1, read-out: Trough Plasma Concentration, Geo Mean",0.0507 µg/mL
same,concentration at 28 day,"100 mg, Day 28, 100 mg QD Part 1, read-out: Trough Plasma Concentration, Mean (SD)",0.303 µg/mL
same,concentration at 28 day,"100 mg, Day 28, 100 mg QD Part 1, read-out: Trough Plasma Concentration, Median",0.0386 µg/mL
same,concentration at 28 day,"100 mg, Day 28, 100 mg QD Part 2, read-out: Trough Plasma Concentration, Geo Mean",0.0129 µg/mL
same,concentration at 28 day,"100 mg, Day 28, 100 mg QD Part 2, read-out: Trough Plasma Concentration, Mean (SD)",0.0264 µg/mL
same,concentration at 28 day,"100 mg, Day 28, 100 mg QD Part 2, read-out: Trough Plasma Concentration, Median",0.0199 µg/mL
same,concentration at 56 day,"100 mg, 100 mg QD Part 1, read-out: Trough Plasma Concentration, Geometric Mean",0.0721 µg/mL
same,concentration at 56 day,[5],0.258 µg/mL
same,concentration at 56 day,[6],0.0304 µg/mL
same,concentration at 56 day,"100 mg, 100 mg QD Part 2, read-out: Trough Plasma Concentration, Geometric Mean",0.0203 µg/mL
